Data: ChEMBL document CHEMBL4425100, “Design, Synthesis, and Evaluation of in Vitro and in Vivo Anticancer Activity of 4-Substituted Coumarins: A Novel Class of Potent Tubulin Polymerization Inhibitors” (J Med Chem, 2016)
Structures can show the parent of a compound that is named as a salt. Active and inactive are the calls of the source. The rule behind the calls is not given here.

Experiments:
[1] = Solubility of the compound in […] ethanol/[…] Tween-80 at 1 mg; format: physicochemical
Tubulin (Homo sapiens) [2] = molecular target: T1, Tubulin (Homo sapiens) (UniProt P68371+Q9H4B7+P0DPH7+P68366+Q13509+Q71U36+P04350+Q3ZCM7+P07437+P68363+Q9BQE3+Q6PEY2+Q13885+Q9BVA1+Q9BUF5); assay: Binding affinity to microtubule in human HepG2 cells assessed as inhibition of spindle formation after 24 hrs by immunofluorescence staining-based confocal microscopy; format: cell-based
Tubulin (Homo sapiens) [3] = molecular target: T1, Tubulin (Homo sapiens); assay: Inhibition of microtubule polymerization in human HepG2 cells after 24 hrs by immunofluorescence staining-based confocal microscopy; format: cell-based
Tubulin (Sus scrofa) [4] = molecular target: T2, Tubulin (Sus scrofa) (UniProt P02554+P02550); assay: Inhibition of porcine brain tubulin polymerization preincubated for 5 mins followed by GTP addition measured every 2 mins by spectrophotometry
[5] = molecular target: Tubulin beta (Homo sapiens) (UniProt P68371+Q9H4B7+Q13509+P04350+Q3ZCM7+P07437+Q13885+Q9BVA1+Q9BUF5+A6NNZ2); assay: Competitive binding affinity to beta-tubulin in human HepG2 cells assessed as disappearance of EBI-protein adducts preincubated for 2 hrs followed by EBI addition measured after […] by Western blot analysis; format: cell-based
Tubulin (Homo sapiens) [6] = molecular target: T1, Tubulin (Homo sapiens); assay: Binding affinity to tubulin in human HepG2 cells assessed as induction of abnormal chromosomal aggregation at 100 nM after 16 to 24 hrs by DAPI staining-based immunofluorescence microscopy; format: cell-based
Tubulin (Homo sapiens) [7] = molecular target: T1, Tubulin (Homo sapiens); assay: Binding affinity to tubulin in human HepG2 cells assessed as inhibition of microtubule network formation in cytosol at 100 nM after 16 to 24 hrs by DAPI staining-based immunofluorescence microscopy; format: cell-based
SK-OV-3 = assay: Antiproliferative activity against human SKOV3 cells after 24 hrs by MTT assay; format: functional, cell-based; conditions: SK-OV-3, 24 h
Tubulin (Sus scrofa) [8] = molecular target: T2, Tubulin (Sus scrofa); assay: Inhibition of porcine brain tubulin polymerization at 10 uM preincubated for 5 mins followed by GTP addition measured every 2 mins by spectrophotometry
HCT-116 = assay: Antiproliferative activity against human HCT116 cells after 24 hrs by MTT assay; format: functional, cell-based; conditions: HCT-116, 24 h
HepG2 = assay: cells; conditions: Homo sapiens, HepG2, 24 h
Description: Antiproliferative activity against human HepG2 cells after 24 hrs by MTT assay

[9] = Toxicity in mouse xenografted with human H460 cells assessed as body weight loss at 2.5 to 5 mg/kg, iv qd administered every 2 days measured daily during compound dosing; format: organism-based; conditions: in vivo, 48 h
[10] = Toxicity in mouse xenografted with human H460 cells assessed as mortality at 2.5 to 5 mg/kg, iv qd administered every 2 days measured daily during compound dosing; format: organism-based; conditions: in vivo, 48 h
[11] = Toxicity in mouse allografted with mouse C26 cells assessed as mortality at 2.5 to 5 mg/kg, iv qd administered every 2 days measured daily during compound dosing; format: organism-based; conditions: in vivo, 48 h
[12] = Toxicity in mouse allografted with mouse C26 cells assessed as body weight loss at 2.5 to 5 mg/kg, iv qd administered every 2 days measured daily during compound dosing; format: organism-based; conditions: in vivo, 48 h
[13] = Toxicity in mouse xenografted with human MCF7 cells assessed as body weight loss at 24 mg/kg, iv qd administered once a week; format: organism-based; conditions: in vivo
MCF7 [14] = assay: Antitumor activity against human MCF7 cells xenografted in mouse assessed as tumor growth inhibition at 5 mg/kg, iv qd administered every 2 days measured during compound dosing; format: functional; conditions: 48 h, read-out: TGI
[15] = Toxicity in mouse xenografted with human MCF7 cells assessed as body weight loss at 5 mg/kg, iv qd administered every 2 days measured during compound dosing; format: organism-based; conditions: in vivo, 48 h
A2780/Taxol [16] = assay: Antitumor activity against beta-tubulin 3 overexpressing human A2780T cells xenografted in mouse assessed as tumor growth inhibition at 30 mg/kg, iv qd administered once a week; format: functional; conditions: read-out: TGI
[17] = Toxicity in mouse xenografted with beta-tubulin 3 overexpressing human A2780T cells assessed as abnormal behavior at 30 mg/kg, iv qd administered once a week; format: organism-based; conditions: in vivo
NCI/ADR-RES [18] = assay: Cytotoxicity against P-gp overexpressing human MCF7/ADR cells assessed as reduction in cell growth after 24 hrs by MTT assay; format: functional, cell-based
A2780/Taxol [19] = assay: Cytotoxicity against beta-tubulin 3 overexpressing human A2780T cells assessed as reduction in cell growth after 24 hrs by MTT assay; format: functional, cell-based
Tubulin (Homo sapiens) [20] = molecular target: T1, Tubulin (Homo sapiens); assay: Binding affinity to microtubule in human HepG2 cells assessed as bundling of microtubule fibers near nucleus at 300 nM after 24 hrs by immunofluorescence staining-based confocal microscopy; format: cell-based
[21] = Toxicity in mouse xenografted with beta-tubulin 3 overexpressing human A2780T cells assessed as body weight loss at 30 mg/kg, iv qd administered once a week; format: organism-based; conditions: in vivo
HCT-8 [22] = assay: Cytotoxicity against vinblastine resistant/P-gp overexpressing human HCT8 cells assessed as reduction in cell growth after 24 hrs by MTT assay; format: functional, cell-based; conditions: HCT-8, 24 h
[23] = Toxicity in mouse xenografted with P-gp overexpressing human MCF7/ADR cells assessed as body weight loss at 4 mg/kg, iv qd administered every 2 days measured during compound dosing; format: organism-based; conditions: in vivo, 48 h
NCI/ADR-RES [24] = assay: Antitumor activity against P-gp overexpressing human MCF7/ADR cells xenografted in mouse assessed as tumor growth inhibition at 4 mg/kg, iv qd administered every 2 days measured during compound dosing; format: functional; conditions: 48 h, read-out: TGI
HCT-8 [25] = assay: Antiproliferative activity against human HCT8 cells after 24 hrs by MTT assay; format: functional, cell-based; conditions: HCT-8, 24 h
MCF7 [26] = assay: cells; conditions: Homo sapiens, MCF7, 24 h
Description: Antiproliferative activity against human MCF7 cells after 24 hrs by MTT assay

T2 sequence (P02550 whole entry, looked up): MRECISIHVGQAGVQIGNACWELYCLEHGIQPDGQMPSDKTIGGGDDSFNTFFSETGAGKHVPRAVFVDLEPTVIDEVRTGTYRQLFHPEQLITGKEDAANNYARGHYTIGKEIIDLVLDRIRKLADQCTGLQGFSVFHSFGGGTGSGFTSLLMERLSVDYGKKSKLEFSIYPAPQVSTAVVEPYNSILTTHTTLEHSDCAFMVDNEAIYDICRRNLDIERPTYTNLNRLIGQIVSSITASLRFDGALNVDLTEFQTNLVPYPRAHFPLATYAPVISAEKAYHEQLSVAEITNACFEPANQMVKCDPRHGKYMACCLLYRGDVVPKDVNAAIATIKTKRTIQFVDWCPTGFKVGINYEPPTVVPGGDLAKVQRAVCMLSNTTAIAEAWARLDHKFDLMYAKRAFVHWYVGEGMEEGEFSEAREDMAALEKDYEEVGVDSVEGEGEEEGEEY
T2 sequence (P02554 whole entry, looked up): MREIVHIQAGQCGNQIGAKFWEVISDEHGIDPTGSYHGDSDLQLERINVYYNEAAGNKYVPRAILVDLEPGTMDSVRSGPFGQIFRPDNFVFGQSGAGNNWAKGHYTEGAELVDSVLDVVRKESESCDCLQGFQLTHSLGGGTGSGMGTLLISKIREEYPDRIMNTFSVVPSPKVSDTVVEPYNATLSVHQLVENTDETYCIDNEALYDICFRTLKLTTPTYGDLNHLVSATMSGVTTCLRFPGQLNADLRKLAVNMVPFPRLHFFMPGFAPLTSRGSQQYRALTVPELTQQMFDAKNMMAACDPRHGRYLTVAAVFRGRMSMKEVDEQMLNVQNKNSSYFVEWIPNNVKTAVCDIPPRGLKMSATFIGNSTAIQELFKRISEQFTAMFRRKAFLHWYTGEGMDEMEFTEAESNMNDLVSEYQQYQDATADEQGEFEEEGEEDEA

COc1ccc(N(C)c2cc(=O)oc3ccccc23)cc1OC(C)=O
solubility [1]: Insoluble

CCCCCCCCCC(=O)Oc1cc(N(C)c2cc(=O)oc3ccccc23)ccc1OC
solubility [1]: Insoluble

C=CCCC(=O)Oc1cc(N(C)c2cc(=O)oc3ccccc23)ccc1OC
solubility [1]: Insoluble

CCCCC(=O)Oc1cc(N(C)c2cc(=O)oc3ccccc23)ccc1OC
solubility [1]: Insoluble

COc1ccc(N(C)c2cc(=O)oc3ccccc23)cc1NC(=O)CCCCCl
inhibition (Tubulin (Homo sapiens) [2]): Dose-dependent effect
solubility [1]: Soluble
inhibition (Tubulin (Homo sapiens) [3]): Dose-dependent effect
inhibition (Tubulin (Sus scrofa) [4]): Dose-dependent effect
Activity [5]: Dose-dependent effect
Activity (Tubulin (Homo sapiens) [6]): Active
inhibition of microtubule network formation (active/inactive) (Tubulin (Homo sapiens) [7]): Active

C=C(C)C(=O)Oc1cc(N(C)c2cc(=O)oc3ccccc23)ccc1OC
solubility [1]: Insoluble

COc1ccc(N(C)c2nc(C)nc3ccccc23)cc1 [VERUBULIN]
IC50 (SK-OV-3): 0.0032 µM
inhibition (Tubulin (Sus scrofa) [8]): Active
IC50 (HCT-116): 0.0043 µM
IC50 (HepG2): 0.0046 µM
Activity [9]: Toxic
Activity [10]: Toxic
Activity [11]: Toxic
Activity [12]: Toxic

COc1ccc(N(C)c2cc(=O)oc3ccccc23)cc1OC(=O)CCCCCl
solubility [1]: Soluble
Activity (Tubulin (Homo sapiens) [6]): Active
inhibition of microtubule network formation (active/inactive) (Tubulin (Homo sapiens) [7]): Active

CCC/C=C/C(=O)Oc1cc(N(C)c2cc(=O)oc3ccccc23)ccc1OC
solubility [1]: Insoluble

COc1ccc(N(C)c2cc(=O)oc3ccccc23)cc1OC(=O)C(C)(C)C
solubility [1]: Insoluble

CC(=O)O[C@H]1C(=O)[C@@]2(C)[C@H]([C@H](OC(=O)c3ccccc3)[C@]3(O)C[C@H](OC(=O)[C@H](O)[C@@H](NC(=O)c4ccccc4)c4ccccc4)C(C)=C1C3(C)C)[C@]1(OC(C)=O)CO[C@@H]1C[C@@H]2O [PACLITAXEL]
Activity [13]: Toxic
inhibition in vivo at 5 mg/kg (MCF7 [14]): 59.2%
Activity [15]: Toxic
inhibition in vivo at 30 mg/kg (A2780/Taxol [16]): 37.7%
Activity [17]: Toxic
IC50 (NCI/ADR-RES [18]): 9.15 µM
IC50 (A2780/Taxol [19]): 56.6 µM
Activity (Tubulin (Homo sapiens) [20]): Active
Activity [21]: Toxic
IC50 (HCT-8 [22]): 0.189 µM

COc1ccc(N(C)c2cc(=O)oc3ccccc23)cc1OCCN1CCOCC1
IC50 (SK-OV-3): > 5 µM
IC50 (HCT-116): > 5 µM
IC50 (HepG2): > 5 µM

COc1ccc(N(C)c2cc(=O)oc3ccccc23)cc1N
solubility [1]: Insoluble

COc1ccc(N(C)c2cc(=O)oc3ccccc23)cc1O
solubility [1]: Insoluble

COC(=O)CCCC(=O)Nc1cc(N(C)c2cc(=O)oc3ccccc23)ccc1OC
solubility [1]: Soluble
Activity (Tubulin (Homo sapiens) [6]): Active
inhibition of microtubule network formation (active/inactive) (Tubulin (Homo sapiens) [7]): Active

COc1cc2c(c(OC)c1OC)-c1ccc(OC)c(=O)cc1[C@@H](NC(C)=O)CC2 [COLCHICINE]
IC50 (SK-OV-3): 0.0519 µM
IC50 (HepG2): 0.0428 µM
IC50 (A2780/Taxol [19]): 8.67 µM
IC50 (HCT-8 [22]): 2.43 µM

COc1ccc(N(C)c2cc(=O)oc3ccccc23)cc1OC(=O)C=C(C)C
solubility [1]: Insoluble

COc1ccc2c(N(C)c3ccc(OC)c(O)c3)cc(=O)oc2c1
solubility [1]: Insoluble

COc1ccc(-c2ccc(-c3cc(=O)oc4cc(OC)ccc34)s2)cc1
IC50 (SK-OV-3): > 5 µM
IC50 (HCT-116): > 5 µM
IC50 (HepG2): > 5 µM

CCCCCC(=O)Nc1cc(N(C)c2cc(=O)oc3ccccc23)ccc1OC
solubility [1]: Insoluble

C/C=C/C(=O)Nc1cc(N(C)c2cc(=O)oc3ccccc23)ccc1OC
solubility [1]: Insoluble

C=CCCC(=O)Nc1cc(N(C)c2cc(=O)oc3ccccc23)ccc1OC
solubility [1]: Soluble
Activity (Tubulin (Homo sapiens) [6]): Active
inhibition of microtubule network formation (active/inactive) (Tubulin (Homo sapiens) [7]): Active

CCOC(=O)CCC(=O)Oc1cc(N(C)c2cc(=O)oc3ccccc23)ccc1OC
solubility [1]: Insoluble

COc1ccc(N(C)c2cc(=O)oc3ccccc23)cc1OC(=O)CCl
solubility [1]: Insoluble

CCOC(=O)CCC(=O)Nc1cc(N(C)c2cc(=O)oc3ccccc23)ccc1OC
solubility [1]: Insoluble

COc1ccc(N(C)c2cc(=O)oc3ccccc23)cc1OC(=O)CBr
solubility [1]: Insoluble

COC(=O)CCCC(=O)Oc1cc(N(C)c2cc(=O)oc3ccccc23)ccc1OC
solubility [1]: Soluble
Activity (Tubulin (Homo sapiens) [6]): Active
inhibition of microtubule network formation (active/inactive) (Tubulin (Homo sapiens) [7]): Active

C=CC(=O)Oc1cc(N(C)c2cc(=O)oc3ccccc23)ccc1OC
solubility [1]: Insoluble

COc1cccc2c1C(=O)c1c(O)c3c(c(O)c1C2=O)C[C@@](O)(C(=O)CO)C[C@@H]3O[C@H]1C[C@H](N)[C@H](O)[C@H](C)O1 [DOXORUBICIN HYDROCHLORIDE]
Activity [23]: Toxic
inhibition in vivo at 4 mg/kg (NCI/ADR-RES [24]): 33.3%
IC50 (NCI/ADR-RES [18]): 8.15 µM

COc1ccc2c(-c3ccc(-c4ccc5c(c4)OCO5)s3)cc(=O)oc2c1
IC50 (SK-OV-3): > 5 µM
IC50 (HCT-116): > 5 µM
IC50 (HepG2): > 5 µM

CCC(=O)Oc1cc(N(C)c2cc(=O)oc3ccccc23)ccc1OC
solubility [1]: Insoluble

CCCCCC(=O)Oc1cc(N(C)c2cc(=O)oc3ccccc23)ccc1OC
solubility [1]: Insoluble

CCCCCCCCCC(=O)Nc1cc(N(C)c2cc(=O)oc3ccccc23)ccc1OC
solubility [1]: Insoluble

C/C=C/C(=O)Oc1cc(N(C)c2cc(=O)oc3ccccc23)ccc1OC
solubility [1]: Soluble
Activity (Tubulin (Homo sapiens) [6]): Active
inhibition of microtubule network formation (active/inactive) (Tubulin (Homo sapiens) [7]): Active

CC[C@]1(O)C[C@@H]2CN(CCc3c([nH]c4ccccc34)[C@@](C(=O)OC)(c3cc4c(cc3OC)N(C)[C@H]3[C@@](O)(C(=O)OC)[C@H](OC(C)=O)[C@]5(CC)C=CCN6CC[C@]43[C@@H]65)C2)C1 [VINBLASTINE]
IC50 (HCT-8 [25]): 0.0148 µM
IC50 (NCI/ADR-RES [18]): 5.85 µM
IC50 (A2780/Taxol [19]): 6.9 µM
IC50 (HCT-8 [22]): 5.21 µM
IC50 (MCF7 [26]): 0.0547 µM

COc1ccc(N(C)c2cc(=O)oc3ccccc23)cc1OC(=O)C1CC1
solubility [1]: Insoluble

CC/C=C(\C)C(=O)Oc1cc(N(C)c2cc(=O)oc3ccccc23)ccc1OC
solubility [1]: Soluble
Activity (Tubulin (Homo sapiens) [6]): Active
inhibition of microtubule network formation (active/inactive) (Tubulin (Homo sapiens) [7]): Active

COc1ccc(N(C)c2cc(=O)oc3ccccc23)cc1OC(=O)CC(C)(C)C
solubility [1]: Insoluble

CC/C=C(\C)C(=O)Nc1cc(N(C)c2cc(=O)oc3ccccc23)ccc1OC
solubility [1]: Insoluble
